Test results reported in patent US8741843B2, “Compositions and methods for inducing angiogenesis” (priority 2006, dated 2014).
“Also recorded” adds a separate entry of the source.

Legend:
ERK½ = ERK½ phosphorylation in endothelial cells under hypoxia (Western blot, densitometry); type: cell-based, human; conditions: for percent adjusted volume of pERK band: FIG. 31, cord 1, 10 ng/ml; for ERK½ phosphorylation (in words): endothelial cells under hypoxia; for ERK½ phosphorylation (in words) / incubation time of maximal ERK phosphorylation (densitometry, data not shown): 10 ng/ml; for incubation time of maximal ERK phosphorylation (densitometry, data not shown): hypoxia
Experimental: FIGS. 30a-b are Western blot analyses depicting induction of phosphorylation of ERK by ADoPep1 and Motif A. Endothelial cells under starvation conditions and 5 hours hypoxia were incubated for 5 (lanes 2 and 6), 20 (lanes 3 and 7), 30 (lanes 4 and 8) and 60 (lanes 5 and 9) minutes with 10 ng/ml ADoPep1 (Lanes 2-5) or Motif A (lanes 6-9) peptides or remained under hypoxia without a further incubation with a peptide (lane 1). After incubation, lysates were prepared, subject to SDS-PAGE and blotting on a nitrocellulose membrane. Western Blot analysis was performed using anti-Phospho ERK½ antibody. […] FIG. 30a—Experiment 1; FIG. 30b—Experiment 2. The percent adjusted volume as determined by a densitometric analysis software to compare net band densities was as follows: FIG. 30a, lane 1-4.5, lane 2-9.3, lane 3-13.7, lane 4-13.3, lane 5-11.2, lane 6-10.7, lane 7-12.4, lane 8-12.3 and lane 9-12.4; FIG. 30b, lane 1-4.21, lane 2-12.4, lane 3-12.5, lane 4-14.8, lane 5-10.9, lane 6-14.9, lane 7-9.8, lane 8-12.7 and lane 9-7.8.
FIG. 31 is a Western blot analysis depicting the level of phosphorylated ERK (pERK) in endothelial cells activated for 20 minutes with ADOPep1 and motif A and inhibited by pERK-inhibitor peptide. Endothelial cells (from cord 1) under starvation conditions and 5 hours hypoxia were incubated with 10 ng/ml ADOPep1 (lanes 3 and 4) or motif A (lanes 1 and 2) peptides in the presence (lanes 2 and 4) or absence (lanes 1 and 3) of p-ERK-inhibitor peptide (Santa Cruz). For control, the endothelial cells under starvation conditions and 5 hours hypoxia (lane 5) were also incubated with the p-ERK-inhibitor peptide (lane 6). […] The percent adjusted volume as determined by a densitometric analysis software to compare net band densities was as follows: lane 1-19, lane 2-14, lane 3-14, lane 4-8.8, lane 5-11, lane 6-2.1.
FIGS. 32a-b are Western blot analyses depicting the effect of ADOPeps on the level of phosphorylated ERK. Endothelial cells (EC) from cord 1 (FIG. 32a) or cord 2 (FIG. 32b) under hypoxia (5 hours) were incubated for 20 or 30 minutes with 10 ng/ml of AdoPep1, AdoPep2 and AdoPep3 or remained untreated (i.e., under hypoxia without any peptide). Western Blot analyses of samples cell lysates were performed with anti Phospho ERK antibody on nitrocellulose membranes. […] The percent adjusted volume as determined by a densitometric analysis software to compare net band densities was as follows: FIG. 32a, lane 1-11, lane 2-13, lane 3-11, lane 4-5, lane 5-11, lane 6-13, lane 7-17, lane 8-16.7; FIG. 32b, lane 1-17, lane 2-22, lane 3-19, lane 4-7, lane 5-8, lane 6-13, lane 7-14, lane 8-1.

[1] = system: endothelial cells (HUVEC); assay: Migration of endothelial cells under hypoxia (Chemicon QCM 96-well Migration Assay); type: cell-based, human; conditions: 5 hours hypoxia, 10 ng/ml
Experimental: FIG. 6 is a graph depicting migration of endothelial cells under hypoxia conditions. Endothelial cells (25,000) were incubated in endothelial cells growth medium free supplements in the migration chamber. ADOPep1 (SEQ ID NO:2), 2 (SEQ ID NO:3) and 3 (SEQ ID NO:4) were added to the feeder tray of the migratory kit at 1, 10 and 100 ng/ml for 5 hours hypoxia. Results were determined by a fluorescence ELISA reader and expressed as increase in percentage migration in Relative fluorescence Units.
FIGS. 26a-b are graphs depicting induction of endothelial cell migration under hypoxia by the ADOPEP motifs. Endothelial cells were incubated for 5 hours under hypoxia conditions in the presence of increasing concentrations of ADOPep1 (red line), peptide motif A (dark blue line), peptide motif B (green line) or peptide motif C (light blue line) and the migration of endothelial cells was detected. FIG. 26a—experiment 1; FIG. 26b—experiment 2.
Endothelial cell migration was evaluated by the Chemicon QCM 96-well Migration Assay (Chemicon International, Calif., USA) according to manufacturer's instructions. This kit utilizes a membrane with an 8 μm pore size. Migratory cells on the bottom of the insert membrane are dissociated from the membrane when incubated with cell detachment buffer provided by the kit. […] For the migration assay, HUVEC from passage 3 were incubated in endothelial cell (EC) growth medium free of supplements. After trypsinization, 25,000 EC were incubated in the migration chamber. ADOPeps were added at concentrations of 1, 10 and 100 ng/ml in the feeder tray for chemoattractant migration assay. Time of incubation was 5 hours for endothelial cells under hypoxic conditions. Results were determined in a Fluorescent ELISA reader at 480/520 nm.

endothelial cells = assay: Tube formation of endothelial cells on Cultrex Basement Membrane Extract; type: cell-based, human; conditions: 10 ng/ml, 18 hours, starvation and normoxic conditions
Experimental: FIG. 27 is a graph depicting induction of tube formation using AdoPep1 and Motif A (SEQ ID NO:7) but not the scrambled sROY peptide. Endothelial cells were incubated in media without supplements for 24 hours, and 50,000 cells were then transferred in 500 μl medium to 24-well plates precoated with 250 μl Cultrex Basement Membrane Extract (with reduced growth factors) (R&D Systems, Minneapolis, Minn., USA). AdoPep1, Motif A and scrambled sROY peptides were added at an optimal concentration of 10 ng/ml (based on preliminary findings), and the slides were examined by light microscopy after 18 hours incubation. The results represent average±SD of three experiments using 3 different cords. The length of the network of connected cells (tube formation) was measured in micrometers in 5 different areas of each well using Image-Pro Plus Image software (Media Cybernetics, Silver Spring, Md., USA).

[2] = biological target: T1, GRP78 on endothelial cells (Homo sapiens, UniProt P11021); assay: FACS competition of peptides with GRP78 polyclonal antibody on endothelial cells under hypoxia; type: binding; conditions: hypoxic conditions; for inhibition of anti GRP78 binding to endothelial cells: ten micrograms of peptide
T1 construct: endogenous in cells; host or cells: HUVEC / endothelial cells from umbilical cords, under normoxia or hypoxia
T1 sequence (P11021 19-654): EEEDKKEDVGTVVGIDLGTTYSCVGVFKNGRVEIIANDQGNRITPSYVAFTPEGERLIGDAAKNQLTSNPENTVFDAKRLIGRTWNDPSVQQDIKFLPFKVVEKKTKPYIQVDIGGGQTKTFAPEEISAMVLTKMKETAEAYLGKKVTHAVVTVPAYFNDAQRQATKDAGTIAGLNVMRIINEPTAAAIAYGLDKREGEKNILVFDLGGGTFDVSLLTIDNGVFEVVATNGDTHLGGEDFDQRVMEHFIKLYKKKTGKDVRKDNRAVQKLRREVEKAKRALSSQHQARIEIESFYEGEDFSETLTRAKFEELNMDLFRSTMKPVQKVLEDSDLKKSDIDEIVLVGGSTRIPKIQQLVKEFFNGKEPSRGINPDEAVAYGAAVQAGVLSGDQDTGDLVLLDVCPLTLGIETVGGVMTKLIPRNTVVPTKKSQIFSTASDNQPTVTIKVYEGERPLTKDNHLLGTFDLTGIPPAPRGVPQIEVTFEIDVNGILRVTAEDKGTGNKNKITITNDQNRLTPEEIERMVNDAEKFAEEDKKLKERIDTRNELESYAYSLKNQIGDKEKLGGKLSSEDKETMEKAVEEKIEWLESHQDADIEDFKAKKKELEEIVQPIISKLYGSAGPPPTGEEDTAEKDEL
Experimental: Endothelial cells were cultured for 24 hours under hypoxic conditions in endothelial cell growth medium. Cells were removed by trypsin and incubated for 1 hour on ice with increasing concentrations of AdoPep1, Motif A and Motif C peptides. GRP78 polyclonal antibody (2 μg/100,000) was added to the cells for 2 hours on ice. Anti-goat FITC (Jackson ImmunoResearch) was added for 30 minutes on ice. IgG1-FITC was used as the isotype control. The samples were analyzed with a FACScan (Beckton Dickinson). […] FIG. 28d depicts the average percent binding of GRP78 to endothelial cells as a function of peptide amount as determined by 2 independent experiments.

[3] = FIG. 30a experiment 1, 10 ng/ml, 5 minutes, hypoxia alone 4.5
[4] = FIG. 30a experiment 1, 10 ng/ml, 20 minutes, hypoxia alone 4.5
[5] = FIG. 30a experiment 1, 10 ng/ml, 30 minutes, hypoxia alone 4.5
[6] = FIG. 30a experiment 1, 10 ng/ml, 60 minutes, hypoxia alone 4.5
[7] = FIG. 30b experiment 2, 10 ng/ml, 5 minutes, hypoxia alone 4.21
[8] = FIG. 30b experiment 2, 10 ng/ml, 20 minutes, hypoxia alone 4.21
[9] = FIG. 30b experiment 2, 10 ng/ml, 30 minutes, hypoxia alone 4.21
[10] = FIG. 30b experiment 2, 10 ng/ml, 60 minutes, hypoxia alone 4.21
[11] = 20 minutes, absence of p-ERK-inhibitor peptide, hypoxia alone 11
[12] = 20 minutes, presence of p-ERK-inhibitor peptide

Substance: HWRRAHLLPRLP [ADOPep1, ADAM15 derived peptide, amino acids 286-297 of the metalloprotease domain]
- percent adjusted volume of phospho ERK½ band (ERK½; [3]): 9.3%
- percent adjusted volume of phospho ERK½ band (ERK½; [4]): 13.7%
- percent adjusted volume of phospho ERK½ band (ERK½; [5]): 13.3%
- percent adjusted volume of phospho ERK½ band (ERK½; [6]): 11.2%
- percent adjusted volume of phospho ERK½ band (ERK½; [7]): 12.4%
- percent adjusted volume of phospho ERK½ band (ERK½; [8]): 12.5%
- percent adjusted volume of phospho ERK½ band (ERK½; [9]): 14.8%
- percent adjusted volume of phospho ERK½ band (ERK½; [10]): 10.9%
- percent adjusted volume of pERK band (ERK½; [11]): 14%
- percent adjusted volume of pERK band (ERK½; [12]): 8.8%
- percent adjusted volume of phospho ERK band (ERK½; FIG. 32a cord 1, 10 ng/ml, 20 minutes, untreated 11, 13): 17%
- percent adjusted volume of phospho ERK band (ERK½; FIG. 32a cord 1, 10 ng/ml, 30 minutes, untreated 11, 13): 16.7%
- percent adjusted volume of phospho ERK band (ERK½; FIG. 32b cord 2, 10 ng/ml, 20 minutes, untreated 17): 22%
- percent adjusted volume of phospho ERK band (ERK½; FIG. 32b cord 2, 10 ng/ml, 30 minutes, untreated 8): 13%
- ERK½ phosphorylation (in words) (ERK½): significant increase in ERK½ phosphorylation; also recorded: induced ERK½ phosphorylation
- ERK½ phosphorylation (in words) (ERK½; listed as ADoPep1): induction of ERK½ phosphorylation
- incubation time of maximal ERK phosphorylation (densitometry, data not shown) (ERK½): 20 min
- migration of endothelial cells [1]: most significant increase in EC migration; also recorded: induced endothelial cell migration
- migration of endothelial cells ([1]; listed as ADOPep 1): induced increase in percent of migration
- tube formation (length of the network of connected cells) (endothelial cells): significantly increased the length of the network of connected cells
- inhibition of anti GRP78 binding to endothelial cells (in words) [2]: inhibit the binding of GRP78 to endothelial cells
- inhibition of anti GRP78 binding to endothelial cells [2]: approximately 80%

Substance: HWRRP [Motif A, 5 amino acid motif peptide]
- percent adjusted volume of phospho ERK½ band (ERK½; [3]): 10.7%
- percent adjusted volume of phospho ERK½ band (ERK½; [4]): 12.4%
- percent adjusted volume of phospho ERK½ band (ERK½; [5]): 12.3%
- percent adjusted volume of phospho ERK½ band (ERK½; [6]): 12.4%
- percent adjusted volume of phospho ERK½ band (ERK½; [7]): 14.9%
- percent adjusted volume of phospho ERK½ band (ERK½; [8]): 9.8%
- percent adjusted volume of phospho ERK½ band (ERK½; [9]): 12.7%
- percent adjusted volume of phospho ERK½ band (ERK½; [10]): 7.8%
- percent adjusted volume of pERK band (ERK½; [11]): 19%
- percent adjusted volume of pERK band (ERK½; [12]): 14%
- ERK½ phosphorylation (in words) (ERK½): significant increase in ERK½ phosphorylation; also recorded: induction of ERK½ phosphorylation
- incubation time of maximal ERK phosphorylation (densitometry, data not shown) (ERK½): 20 to 60 min
- migration of endothelial cells [1]: induced endothelial cell migration
- tube formation (length of the network of connected cells) (endothelial cells): significantly increased the length of the network of connected cells
- inhibition of anti GRP78 binding to endothelial cells (in words) [2]: inhibit the binding of GRP78 to endothelial cells
- inhibition of anti GRP78 binding to endothelial cells [2]: ~60%
